Assay results: patent US20080261911A1, “Uses of diphenyl/diphenylamine carboxylic acids” (priority 2006, published 2008)
Marks after values point to notes of the source that are not given here.

Tests used:
Egr-1 protein = Egr-1 protein expression in Panc-1 cells, Western blot; format: cell-based; conditions: 50 μM, 48 h
Method: (§1) Cells are washed once with phosphate buffered saline PBS and collected by scraping in 200 μL of lysis buffer [50 mM HEPES, 0.5M sodium chloride, 1.5 mM magnesium chloride, 1 mM EGTA, 10% (v/v) glycerol, 1% Triton X-100, 5 μL/ml of Protease Inhibitor Cocktail (Sigma)]. The lysates from the cells are incubated on ice for 1 hr with intermittent vortexing followed by centrifugation at 40,000 g for 10 min at 4° C. Equal amounts of protein (60 μg) from each treatment group are diluted with loading buffer, boiled and loaded onto 10 and 12.5% SDS-polyacrylamide gel. For vascular endothelial growth factor immunoblots, 100 μg of protein are used. Samples are electrophoresed, transferred to membranes, and proteins detected by incubation with polyclonal primary antibodies Sp1, Sp3, Sp4, HDAC, VEGF (a-20), c-Met, surviving, VEGF, cleaved PARP, and β-tubulin (H-235) followed by blotting with appropriate horseradish peroxidase-conjugated secondary antibody as previously described (Abdelrahim et al, 2004). After autoradiography, band intensities are determined by a scanning laser densitometer (Sharp Electronics Corporation, Mahwah, N.J.) using ZERO-D SCANALYTICS software (Scanalytics Corporation, Billerica, Mass.).
The proximal region of the VEGFR1 promoter contains GC-rich and Egr-1 sites. […]

[1] = test system: Sp1, Sp3 and Sp4 proteins; assay: Western blot of Sp1, Sp3 and Sp4 protein expression in L3.6pl cells; format: cell-based, human; conditions: 50 μM, 48 hr
Method: Cells were treated with 50 μM non-steroidal anti-inflammatory drugs/COX-1/2 inhibitors for 48 hr and whole cell lysates were analyzed by Western blot analysis. […] Protein band intensities were standardized based on β-tubulin protein as a loading control.
Cells are washed once with phosphate buffered saline PBS and collected by scraping in 200 μL of lysis buffer [50 mM HEPES, 0.5M sodium chloride, 1.5 mM magnesium chloride, 1 mM EGTA, 10% (v/v) glycerol, 1% Triton X-100, 5 μL/ml of Protease Inhibitor Cocktail (Sigma)]. The lysates from the cells are incubated on ice for 1 hr with intermittent vortexing followed by centrifugation at 40,000 g for 10 min at 4° C. Equal amounts of protein (60 μg) from each treatment group are diluted with loading buffer, boiled and loaded onto 10 and 12.5% SDS-polyacrylamide gel. […] Samples are electrophoresed, transferred to membranes, and proteins detected by incubation with polyclonal primary antibodies Sp1, Sp3, Sp4, HDAC, VEGF (a-20), c-Met, surviving, VEGF, cleaved PARP, and β-tubulin (H-235) followed by blotting with appropriate horseradish peroxidase-conjugated secondary antibody as previously described (Abdelrahim et al, 2004). After autoradiography, band intensities are determined by a scanning laser densitometer (Sharp Electronics Corporation, Mahwah, N.J.) using ZERO-D SCANALYTICS software (Scanalytics Corporation, Billerica, Mass.).

[2] = test system: VEGF promoter constructs pVEGF1 and pVEGF2; assay: VEGF promoter (pVEGF1/pVEGF2) luciferase transactivation in L3.6pl cells; format: cell-based, human; conditions: 50 μM
Method: Cells were transfected with pVEGF1 or pVEGF2 treated with DMSO, 50 μM ampiroxicam, tolfenamic acid, or diclofenac sodium, and luciferase activity determined. […] Panc-1 cells were transfected with pVEGF2, treated with 20, 40, 60 or 80 μM ampiroxicam or tolfenamic acid, and luciferase determined. […] Cells are cultured in 6-well plates in 2 ml of DME/F12 medium supplemented with 5% fetal bovine serum.

VEGF protein = VEGF protein expression in Panc-1 cells, Western blot; format: cell-based; conditions: 50 μM, 48 hr, compared to DMSO
VEGF mRNA = VEGF mRNA levels in Panc-1 cells, semi-quantitative RT-PCR; format: cell-based
VEGFR1 mRNA = VEGFR1 mRNA in L3.6pl cells, semi-quantitative RT-PCR; format: cell-based, human; conditions: 50 μM, 24 h
Panc-28 cells = assay: Cell proliferation assay, Panc-28 cells; format: cell-based
Method: FIGS. 7A-7D compares effects of tolfenamic acid and ampiroxicam on pancreatic cancer cell proliferation. […] Panc1, Panc28 and L3.6pl cells are seeded in DMEM/F12 media with 5% FBS and treated the next day with either vehicle (DMSO) or with the indicated compounds' concentrations. Cells are counted at the indicated times using a Z1™ COULTER COUNTER® cell counter. Each experiment is carried out in triplicate and results expressed as means ±SD for each determination.

[3] = test system: SEG-1 esophageal cancer cells; assay: Western blot of Sp and Sp-dependent proteins in SEG-1 esophageal cancer cells; format: cell-based; conditions: SEG-1 cells, 25-100 μM
Method: as §1

[4] = test system: orthotopically implanted human pancreatic L3.6p1 cancer cells; assay: Orthotopic pancreatic tumor model in athymic nude mice; conditions: for Body Weight Median / Incidence Liver metastasis / Pancreatic Tumor Incidence (positive mice/mice injected) / Tumor Volume Median / Tumor Weight Median: thrice weekly oral from day 7, sacrificed day 35
Method: Median tumor volumes (FIG. 8A) and weights (FIG. 8B) in athymic nude mice treated orthotopically with L3.6pl cells, and corn oil (control), tolfenamic acid (25 and 50 mg/kg), and gemcitabine (50 mg/kg) were determined. […] Tumors from the various treatment groups were analyzed for Sp1, Sp3, Sp4, and VEGF protein expression by Western blot analysis. […] Immunostaining is shown for VEGF (FIG. 8D), and CD31 (FIG. 8E). Pancreatic tumor sections from animals treated with solvent (control), gemcitabine (50 mg/kg) and tolfenamic acid (25 and 50 mg/kg) were immunostained with VEGF and CD31 antibodies.
Male athymic nude mice (NCI-nu) are purchased from the Animal Production Area of the National Cancer Institute Frederick Cancer Research and Development Center, housed and maintained under specific pathogen-free conditions in accordance with current regulations and standards of the United States Department of Agriculture. Injection of L3.6pl cells (with greater than 90% viability is performed as previously described (Bruns et al, 1999). Seven days after implantation of tumor cells into the pancreas of each mouse, five mice are killed to confirm the presence of tumor lesions.
Mice (10 animals per treatment group) are randomized to receive one of the following treatments: (1) thrice weekly oral administrations of vehicle solution which will serve as a control group; (2) thrice weekly oral administrations of at least three non-steroidal anti-inflammatory drugs at doses of 10, 25, and 50 mg/kg/day; (3) twice weekly intraperitoneal injections of 50, 75, and 100 mg/kg/day gemcitabine alone; and (4) combinations of gemcitabine and non-steroidal anti-inflammatory drugs. Mice are sacrificed on day 35 and body weights measured. Primary tumors in the pancreas are excised, measured, weighed. For immunohistochemistry (IHC) and hematoxylin and eosin (H&E) staining procedures, one part of the tumor tissue is fixed in formalin and embedded in paraffin, and another part is embedded in TISSUE-TEK® O.C.T. compound, rapidly frozen in liquid nitrogen, and stored at −70° C. Visible liver metastases are counted with the aid of a dissecting microscope, and the tissues processed for hematoxylin and eosin staining.
Paraffin-embedded tissues are used for identification of Sp proteins, VEGFR2p27 and vascular endothelial growth factor. Tissue sections ([…] thick) are mounted on positively charged SUPERFROST slides (Fischer Scientific, Co, Houston, Tex.) and dried overnight. Sections are deparaffinized in xylene and treated with a graded series of alcohol [100, 95, and 80% ethanol (v/v) in double distilled H2O] and rehydrated in phosphate buffered saline (pH 7.5). Tissues are treated with pepsin (Biomeda) for 15 min at 37° C. and washed with phosphate buffered saline. A positive reaction is visualized by incubating the slides with stable 3,3′-diaminobenzidine for 10-20 min. Sections are rinsed with distilled water, counterstained with Gill's hematoxylin for 1 min, and mounted with UNIVERSAL MOUNT (Research Genetics). […] Tumor sample lysates are also examined by western blot analysis for the same proteins.
The potential anti-tumorigenic and anti-angiogenic activity of tolfenamic acid against pancreatic tumors was investigated in an orthotopic athymic nude mouse model. L3.6pl cells were used for this study based on their aggressive growth and production of liver metastases (Bruns et al, 1999; Dubois et al, 1998).

[5] = tolfenamic acid 50 mg/kg, p < 0.005 vs controls

## CCOC(=O)OC(C)OC1=C(C(=O)Nc2ccccn2)N(C)S(=O)(=O)c2ccccc21 (stereo not drawn) [ampiroxicam]
Egr-1 protein
  Egr-1 protein: unchanged in all treatment groups

## Cc1c(Cl)cccc1Nc1ccccc1C(=O)O [tolfenamic acid]
[1]
  decrease of Sp1, Sp3 and Sp4 proteins: greater than 65%
[2]
  luciferase activity, pVEGF1 and pVEGF2 constructs: results similar to those observed in Panc-1 cells
VEGF protein
  decrease of vascular endothelial growth factor expression (protein): greater than 60%
VEGF mRNA; 50 μM, 24 hours, compared to DMSO
  decrease of vascular endothelial growth factor mRNA levels: greater than 60%
VEGF mRNA; actinomycin D alone or with 50 μM tolfenamic acid, up to 4.5 hr
  VEGF mRNA stability: decreased at similar rates
VEGFR1 mRNA
  VEGFR1 mRNA levels: decreased VEGFR1 mRNA levels
Panc-28 cells
  potency as inhibitor of pancreatic cell growth relative to ampiroxicam: more potent as an inhibitor of pancreatic cell growth than ampiroxicam
Panc-28 cells; 25-100 μM, 6 days
  cell growth: significantly (p<0.05) inhibited cell growth
[3]
  apoptosis as shown by PARP cleavage: induced apoptosis
  expression of Sp-dependent proteins VEGF, survivin, and c-Met: decreased expression of Sp-dependent proteins vascular endothelial growth factor (VEGF), survivin, and c-Met
  protein expression of Sp1, Sp3, and Sp4: decreased protein expression of Sp1, Sp3, and Sp4
[4]; 25 or 50 mg/kg/d
  median tumor weights and volumes: decreased median tumor weights and volumes
  percent incidence of liver metastasis: decreased the percent incidence of liver metastasis
[4]; at comparable doses
  tumor growth inhibition compared with gemcitabine: more effective than gemcitabine as a tumor growth inhibitor
[4]; compared to tumors from vehicle (corn oil) or gemcitabine-treated animals
  CD31 staining (microvessel density) in tumors: decreased staining
[4]; tolfenamic acid 25 mg/kg
  Body Weight Median: 25 g
  Incidence Liver metastasis: 1/10
  Pancreatic Tumor Incidence (positive mice/mice injected): 10/10
  Tumor Volume Median: 1732.8 mm^3
  Tumor Weight Median: 1.2 g
[4]; tolfenamic acid 50 mg/kg
  Body Weight Median: 24 g
  Incidence Liver metastasis: 1/10
  Pancreatic Tumor Incidence (positive mice/mice injected): 10/10
[4]; [5]
  Tumor Volume Median: 348.8^c mm^3
  Tumor Weight Median: 0.4^c g
[4]; tolfenamic acid 25 and 50 mg/kg
  immunostaining for vascular endothelial growth factor in tumor sections: decreased staining
[4]; tolfenamic acid 25 and 50 mg/kg, gemcitabine 50 mg/kg and solvent as comparison
  VEGFR1 staining of tumor tissue: decreased VEGFR1 expression only in tumors from tolfenamic acid-treated mice
[4]; tolfenamic acid versus corn oil control-treated animals
  expression of Sp1, Sp3, Sp4 and vascular endothelial growth factor in pancreatic tumors, Western blot: significantly decreased expression of Sp1, Sp3, Sp4 and vascular endothelial growth factor
Egr-1 protein
  Egr-1 protein: unchanged in all treatment groups
